Assay results published in ChEMBL document CHEMBL5604062, “ASAP - ZIKV NS2B-NS3 protease fluorescence dose response” (2024).
“And” between values parts separate entries of the source, which are not always exact repeats. Equal values may be shown once.

molecular target: Nonstructural protein 3 (Zika virus, UniProt A0A024AXB9); test: Functional biochemical assay to identify treatments for viral infectious disease that targets Zika NS2B-NS3 protease. Utilizing a direct enzyme activity measurement method, reading the fluorescence intensity is used to characterize the relative potency of inhibitors as IC50.; set-up: species or system PRVABC59
Sequence (A0A024AXB9 whole entry): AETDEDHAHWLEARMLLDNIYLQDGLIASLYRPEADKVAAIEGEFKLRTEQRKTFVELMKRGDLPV

Row | SMILES | IC50
1 | O=C1Cc2c(cccc2C(=O)Nc2ccc3[nH]nnc3c2)N1 | > 25 µM
2 | O=S(=O)(Nc1cccc(-c2nnn[nH]2)c1)c1cc(Cl)cc2c1OCC2 | > 99.5 µM
3 | NC(=O)C1(N2CCCCC2)CCN(C(=O)C2CCN(c3ccc(C=O)cc3)CC2)CC1 | 57.5 µM
4 | Cc1c(C(=O)Nc2ccc(CCN)cc2)cc(C2CC2)n1C | 92.6 µM
5 | CCCCCC(=O)N[C@H](C(=O)NCc1cccc(CN)c1)C1CCCCC1 | > 99.5 µM
6 | O=C(O)c1cccc(CCc2cc(Cl)cc3[nH]ncc23)c1 | > 99.5 µM
7 | Nc1cc(Cl)cc(C(=O)Nc2ccc3c(c2)CNC3)c1N | 0.354 µM
8 | O=C(Nc1ccc2c(c1)CNC2)c1cc(Cl)nc2[nH]ccc12 | 2.24 µM
9 | COc1ccc2nc(C(F)(F)F)nc(N3CCN(c4ccc(N)nc4)CC3)c2c1 | > 99.5 µM
10 | CCn1c(=O)c(N2CC[C@H](N3CCCC3=O)C2)nc2ccccc21 | > 99.5 µM
11 | CCn1cc(-c2cccc(CN(C)C)c2)nc(N2CC[C@@H](CO)C2)c1=O | > 99.5 µM
12 | CCn1c(=O)c(N2CC[C@H](c3nccn3C)C2)nc2ccccc21 | > 99.5 µM
13 | CCS(=O)(=O)c1ccc(Cl)cc1[C@H](Nc1ccc2c(c1)CNC2)C(=O)NCC(F)F | 0.875 µM
14 | O=C(O)c1cc(Oc2ccc(F)cc2)c(F)cc1NS(=O)(=O)c1ccc(Oc2ccccc2Cl)cc1 | 3.67 µM
15 | O=C1OCc2ccc(NC(=O)c3cc(F)cc4[nH]ncc34)cc21 | > 25 µM
16 | COc1ccc(S(=O)(=O)Nc2cc(F)c(Cl)cc2C(=O)NCC(C)C)cc1 | > 99.5 µM
17 | O=C(Nc1ccc2c(c1)C[C@H](O)C2)c1cc(Cl)cc2[nH]ncc12 | > 99.5 µM
18 | c1ccc(-c2csc(C3CCN(Cc4c[nH]c5ccccc45)CC3)n2)cc1 | 22.4 µM
19 | COC(=O)c1cc(Cl)ccc1NS(=O)(=O)c1ccc(O)cc1 | > 99.5 µM
20 | Cc1c(C(=O)Nc2cc(C(=O)N3CCCNC(=O)C3)ccn2)cc(C2CC2)n1C | > 25 µM
21 | Fc1cccc(F)c1-c1n[nH]cc1CN1CCC(c2nc3ccccc3s2)CC1 | > 99.5 µM

Row | SMILES | IC50
22 | CNC(=O)[C@]1(Nc2ccc3c(c2)CNC3)CCc2ccccc21 | > 25 µM
23 | CCOCC1(c2nc3c(C(=O)Nc4ccc5c(c4)CNC5)cc(Cl)cc3[nH]2)CC1 | 0.199 µM
24 | CCn1c(=O)c(N2CCCC[C@H](N3CCCC3)C2)nc2ccccc21 | > 99.5 µM
25 | CO[C@H]1C[C@H](n2cc3c(C(=O)Nc4ccc5c(c4)CNC5)cc(Cl)cc3n2)C1 | 0.219 µM
26 | Cc1c(C(=O)Nc2cc(CCCN)ccn2)cc(C(C)C)n1C | > 99.5 µM
27 | O=C(Nc1ccc2c(c1)CNC2)c1cccc2c1OCCN2 | 8.24 µM
28 | CCn1cc(-c2cccc(-c3ccccc3)c2)nc(N2CC[C@@H](CO)C2)c1=O | > 99.5 µM
29 | CCc1ccc(-c2cn(CC)c(=O)c(N3CC[C@@H](CO)C3)n2)s1 | > 99.5 µM
30 | CNC(=O)[C@H](Nc1cncc(C(=O)O)c1)c1cc(Cl)cc(C2CC2)c1 | > 99.5 µM
31 | Cc1c(C(=O)Nc2cc(C3CCOCC3)ccc2F)cc(C2CC2)n1C | > 25 µM
32 | Clc1cc(Cl)c2c(CN3CCC(c4cscn4)CC3)c[nH]c2c1 | 74.3 µM
33 | O=C(Nc1ccc2c(c1)CNC2)c1cccc2ccncc12 | 0.382 µM
34 | Cc1nc2c(C(=O)Nc3ccc4c(c3)CNC4)cc(Cl)cc2[nH]1 | 0.117 µM
35 | CC[C@H](Cc1nnn[nH]1)c1ccc(NC(=O)c2cc(Cl)cc3c2CCC3)cc1 | > 99.5 µM
36 | COc1ccc(F)cc1-c1ccc(S(=O)(=O)Nc2ccc(Cl)cc2C(=O)O)cc1 | 28.8 µM
37 | O=C1OCc2ccc(NC(=O)[C@H]3CCNC3)cc21 | > 25 µM
38 | c1cncc(-c2cc(CN3CCC(c4cscn4)CC3)n[nH]2)c1 | > 99.5 µM
39 | Clc1ccc2c(c1)ncn2Cc1ccc(-c2nn[nH]n2)cc1 | > 99.5 µM
40 | Cn1c(=O)[nH]c2cc(C(=O)Nc3ccc4c(c3)CNC4)cc(Br)c21 | 6.85 µM
41 | O=C(O)c1cc(Cl)ccc1S(=O)(=O)Nc1ccc(CN2CCCCC2)cc1 | > 99.5 µM

The remaining lines, values ahead:

Row | IC50 | SMILES
42 | 67.4 µM | COc1ncccc1-c1cccc([C@H](NC(=O)OCc2ccccc2)C(=O)Nc2cccc(CN)c2)c1
43 | > 99.5 µM | CN(C)Cc1nnc(NC(=O)[C@@H](NC(=O)OCc2ccccc2)c2ccc(OCc3ccccc3)cc2)s1
44 | 1.16 µM | CNC(=O)[C@H](Nc1cc(CN)cc(C(=O)O)c1)c1cc(Cl)cc(NC(=O)OCc2ccccc2)c1
45 | > 99.5 µM | CN(C(=O)c1cc(Cl)cc(NC(=O)OCc2ccccc2)c1)c1ccc(CN)cc1
46 | 18.2 µM | Cc1ccc(CN)cc1-c1cccc([C@H](NC(=O)OCc2ccccc2)C(=O)Nc2cccc(CN)c2)c1
47 | 6.83 µM | Cc1cc(C(=O)N[C@H](CC(=O)Nc2cccc(CN)c2)c2ccc(OCc3ccccc3)c(Br)c2)sn1
48 | > 99.5 µM | O=C(O)Cn1nc2ccc(-c3cc(Cl)cc(NC(=O)OCc4ccccc4)c3)nn2c1=O
49 | 1.35 µM | NCc1cccc(NC(=O)c2cc(Cl)cc(C(N)=O)c2)c1
50 | 41.3 µM and 51.2 µM and 13 µM and 11.9 µM | NCc1cccc(NC(=O)[C@H]2[C@H]3CCCCC[C@H]3[C@H]2NC(=O)OCc2ccccc2)c1
51 | 3.56 µM | Cc1ccc(-c2cc(CN)cc([C@@H]3C[C@H]3c3cc(Cl)cc(NC(=O)OCc4ccccc4)c3)c2)cn1
52 | > 99.5 µM | NCc1cccc(S(=O)(=O)Nc2cc(Cl)cc(NC(=O)OCc3ccccc3)c2)c1
53 | > 99.5 µM | CN(C)Cc1cccc(-c2ccc(S(=O)(=O)Nc3ccc(Cl)cc3C(=O)O)cc2)c1
54 | > 99.5 µM | CN(C)Cc1csc(NC(=O)c2cc(Cl)cc(NC(=O)OCc3ccccc3)c2)n1
55 | 25.6 µM | CCCC[C@@H](NC(=O)OC(C)(C)C)C(=O)N[C@@H](C(=O)NCc1ccc(CN)cc1)c1ccc(OCc2ccccc2)cc1
56 | 88.1 µM | Cc1cc(-c2cccc([C@@H](NC(=O)OCc3ccccc3)C(=O)Nc3cccc(CN)c3)c2)ccn1
57 | > 99.5 µM | C[C@H](CC(=O)O)NC(=O)c1cc(Cl)cc(NC(=O)OCc2ccccc2)c1

Row | IC50 | SMILES
58 | 12.1 µM | N[C@H]1CCCc2ccc(NC(=O)c3cc(Cl)cc(NC(=O)OCc4ccccc4)c3)cc21
59 | > 99.5 µM | CCN1CC[C@@H](COc2ccc([C@@H](NC(=O)OCc3ccccc3)C(=O)Nc3cccc(CN)c3)cc2)C1
60 | 14.4 µM and 12.8 µM | NCc1cccc(NC(=O)C[C@@H](NC(=O)OCc2ccccc2)c2ccc(Cl)c(Br)c2)c1
61 | 9.6 µM | NCc1cccc(CCc2cc(Cl)cc(NC(=O)OCc3ccccc3)c2)c1
62 | 39.4 µM | O=C(Nc1cc(Cl)cc(-c2cnn(Cc3ccc(C(=O)O)cc3)c2)c1)OCc1ccccc1
63 | 65.6 µM | NCc1cccc(CNC(=O)[C@@H](NC(=O)OCc2ccccc2)c2ccc(OCc3ccccc3)cc2)n1
64 | 45.2 µM | O=C(O)Cn1ncc2cc(-c3cc(Cl)cc(NC(=O)OCc4ccccc4)c3)ccc21
65 | > 99.5 µM | NCc1cccc(NC(=O)[C@@H](NC(=O)OCc2ccccc2)C2CCCCC2)c1
66 | > 99.5 µM | CNC(=O)[C@H](Nc1cc(Cl)cc(NC(=O)OCc2ccccc2)c1)c1cccc(-c2nn[nH]n2)c1
67 | 51.3 µM | NCc1cccc(CNC(=O)c2cc(Cl)cc(NC(=O)OCc3ccccc3)c2)c1
68 | 43.7 µM | CSc1ccc([C@H](CC(=O)Nc2cccc(CN)c2)NC(=O)OCc2ccccc2)cc1
69 | > 99.5 µM | NC[C@H]1C[C@H](NC(=O)[C@@H](NC(=O)OCc2ccccc2)c2ccc(OCc3ccccc3)cc2)C1
70 | > 99.5 µM | NCc1cccc(NC(=O)[C@@H](NC(=O)OCc2ccccc2)c2ccc(-c3ccnc(N)c3)cc2)c1
71 | 39 µM | Cc1cc(C(=O)Nc2cccc(CN)c2)cc(NC(=O)OCc2ccccc2)c1Cl
72 | > 25 µM | Cc1[nH]c(-c2ccccc2)cc1C(=O)Nc1cc(-c2cccnc2)ccn1
73 | 48.5 µM | NCc1cccc(NC(=O)c2cncc(Cl)c2)c1
